Assay results taken from the Bradley open melting point set (2014).
Values joined by “and” are separate entries in the source; they are usually repeats but may differ in a detail not shown here. Equal values may be shown once.

SMILES	melting point
C [methane]	-183 °C
CS(=O)(=O)OS(C)(=O)=O [methanesulfonic anhydride]	67 °C
CS(=O)(=O)Cl [methanesulfonyl chloride]	-33 °C
COc1ccc(C(=O)c2ccccc2Cl)cc1OC [methanone, (2-chlorophenyl)(3,4-dimethoxyphenyl)-]	126 °C
CCC1(CC)C(=O)NC(=O)N(C)C1=O [metharbital]	150 °C
COCC(=O)O [methoxyacetic acid]	8 °C
COC(=O)c1ccc2[nH]nnc2c1 [methyl 1h-benzotriazole-5-carboxylate]	174 °C
COC(=O)C1(C)C(C)=Nc2ccccc21 (stereo not drawn) [methyl 2,3-dimethyl-3H-indole-3-carboxylate]	81 °C
COC(=O)c1cc(O)c(O)c(O)c1 [methyl 3,4,5-trihydroxybenzoate]	201 °C
COC(=O)CCC(C)C1CCC2C3C=CC4CC(OC(C)=O)CCC4(C)C3CC(OC(C)=O)C12C (stereo not drawn) [methyl 3,12-bis(acetyloxy)chol-6-en-24-oate]	84 °C
COC(=O)CCC(C)C1CCC2C3CCC4CC(=O)CCC4(C)C3CC(=O)C12C (stereo not drawn) [methyl 3,12-dioxocholan-24-oate]	130 °C
COC(=O)c1sccc1N [methyl 3-aminothiophene-2-carboxylate]	65 °C
COC(=O)CCC(C)C1CCC2C3CCC4CC(=O)CCC4(C)C3CCC12C (stereo not drawn) [methyl 3-oxocholan-24-oate]	117 °C
COC(=O)c1ccc(N(C)C)cc1 [methyl 4-dimethylaminobenzoate]	100 °C
COC(=O)C1C(=O)C=C(O)CC1C (stereo not drawn) [methyl 4-hydroxy-6-methyl-2-oxo-3-cyclohexene-1-carboxylate]	123 °C
COC(=O)CCC(C)C1CCC2C3C(OC(C)=O)CC4CC(=O)CCC4(C)C3CC(=O)C12C (stereo not drawn) [methyl 7-(acetyloxy)-3,12-dioxocholan-24-oate]	166 °C
COC(=O)/C(=C\c1ccccc1)Cc1ccccc1 [methyl (2Z)-2-benzyl-3-phenylprop-2-enoate]	28 °C
COC(=O)CC(C)=O [methyl acetoacetate]	-80 °C
C=CC(=O)OC [methyl acrylate]	-75 °C
CO[C@@H]1O[C@H](CO)[C@H](O)[C@H](O)[C@H]1O [methyl beta-d-galactopyranoside]	177 °C
COC(N)=O [methyl carbamate]	55 °C
COC(=O)C(C#N)c1ccccc1[N+](=O)[O-] (stereo not drawn) [methyl cyano(2-nitrophenyl)acetate]	88 °C
CCCCCCCC/C=C/CCCCCCCC(=O)OC [methyl elaidate]	10 °C
COC(=O)C(O)c1ccccc1[N+](=O)[O-] (stereo not drawn) [methyl hydroxy(2-nitrophenyl)acetate]	62 °C
C=C(C)C(=O)OC [methyl methacrylate]	-48 °C

SMILES	melting point
COC(=O)CS(C)(=O)=O [methyl methylsulfonylacetate]	61 °C
COC(=O)c1ccc(C)cc1 [methyl p-toluate]	34 °C
COS(=O)(=O)c1ccc(C)cc1 [methyl p-toluenesulfonate]	26 °C
CS(=O)(=O)c1ccccc1 [methyl phenyl sulfone]	87 °C
CCC(=O)OC [methyl propionate]	-88 °C
COC(=O)c1cccc(OC(C)=O)c1 [methyl_3-acetoxybenzoate]	29 °C
COC(=O)c1cccc([N+](=O)[O-])c1 [methyl_3-nitrobenzoate]	80 °C
COC(=O)c1ccc(CO)cc1 [methyl_4-hydroxymethylbenzoate]	51 °C
COC(=O)c1ccc(C)cc1 [methyl_4-methylbenzoate]	37 °C
COC(=O)CC(C)=O [methyl_acetoacetate]	-80 °C
CC#N [methyl_cyanide]	-46 °C
C=C(C)C(=O)OC [methyl_methacrylate]	-48 °C
COC(=O)c1ccccc1O [methyl_salicylate]	-7 °C
CB(O)O [methylboronic acid]	92 °C
O=P(O)(O)CP(=O)(O)O [methylenediphosphonic acid]	203 °C
C[C@]12CCC(=O)C=C1CC[C@@H]1[C@@H]2CC[C@@]2(C)[C@H]1CC[C@]2(C)O [methyltestosterone]	164 °C
CCN(CC)c1ccccc1 [n,n-diethylaniline]	-38 °C
C[N+](=O)[O-] [nitromethane]	-29 °C
Clc1ccc(C(c2ccccc2Cl)C(Cl)(Cl)Cl)cc1 (stereo not drawn) [o,p'-DDT]	75 °C
Cc1ccccc1O [o-Cresol]	33 °C
CC(=O)Oc1ccccc1C=O [o-acetoxybenzaldehyde]	38 °C
CC(=O)c1ccccc1C#N [o-acetyl_benzonitrile]	48 °C
Nc1ccccc1C(=O)O [o-aminobenzoic_acid]	146 °C
COc1ccccc1N [o-anisidine] [listing 1 of 2 here]	6 °C
COc1ccccc1N [o-anisidine] [listing 2 of 2 here]	6 °C

Now from value to compound:

melting point	SMILES
147 °C	CCN(CC)CCNC(=O)c1cc(Cl)c(N)cc1OC [metoclopramide]
252 °C	Cc1ccccc1N1C(=O)c2cc(S(N)(=O)=O)c(Cl)cc2NC1C (stereo not drawn) [metolazone]
221 °C	COC(=O)c1ccc(C(=O)O)cc1 [mono-methyl_terephthalate]
-5 °C	C1COCCN1 [morpholine]
280 °C	C#CC1(O)CCC2C3CCc4cc(O)ccc4C3C(OC)CC21C (stereo not drawn) [moxestrol]
124 °C	CC(C)(C)NCC(O)COc1cccc2c1CC(O)C(O)C2 (stereo not drawn) [nadolol]
114 °C	CN(C)C(=S)Sc1ccc2ccccc2c1 [naphthalen-2-yl dimethyldithiocarbamate]
80 °C and 82 °C and 81 °C	c1ccc2ccccc2c1 [naphthalene]
54 °C	CC(C)(C)CO [neopentyl alcohol]
-20 °C	CC(C)(C)CCl [neopentyl chloride]
248 °C	Cc1ccnc2c1NC(=O)c1cccnc1N2C1CC1 [nevirapine]
135 °C	O=C(OC[C@H]1O[C@](O)(COC(=O)c2cccnc2)[C@@H](OC(=O)c2cccnc2)[C@@H]1OC(=O)c1cccnc1)c1cccnc1 [nicofuranose]
130 °C	NC(=O)c1cccnc1 [nicotinamide]
173 °C	O=C(OC)\C1=C(\N/C(=C(/C(=O)OC)C1c2ccccc2[N+]([O-])=O)C)C [nifedipine]
263 °C	O=C1CN(/N=C/c2ccc([N+](=O)[O-])o2)C(=O)N1 [nitrofurantoin]
12 °C	CCCCCCCCC(=O)O [nonanoic_acid]
204 °C	C#C[C@]1(O)CC[C@H]2[C@@H]3CCC4=CC(=O)CC[C@@H]4[C@H]3CC[C@@]21C [norethindrone]
75 °C	C=CCC(CC)(CC)C(N)=O [novonal]
88 °C	CNC(=S)NCO [noxythiolin]
122 °C	CC(=O)c1ccccc1C(N)=O [o-acetylbenzamide]
22 °C	O=Cc1ccccc1Br [o-bromobenzaldehyde]
149 °C	O=C(O)c1ccccc1Br [o-bromobenzoic_acid]
10 °C	Brc1ccccc1I [o-bromoiodobenzene]
